# Measured values taken from patent US10208007B2, “Use of strigolactones and strigolactone analogs for treating proliferative conditions” (The State of Israel, Ministry of Agriculture & Rural …, priority 2011, dated 2019).
# Key:
# [1] = test system: GRIM REAPER (GRI); test: Gene transcription level by quantitative PCR: GRI; type: in vivo, Arabidopsis thaliana
# Procedure: Seeds of homozygous lines of Arabidopsis thaliana wild type (WT; Columbia; Col-0) and max2-1 mutant (http://abrc.osu.edu/) were surface-sterilized and germinated on 1/2 Murashige and Skoog (MS) plates supplemented with 1% sucrose and solidified with 0.7% agar. Plates were incubated vertically in the dark at 4° C. for two days to synchronize germination. Three days after germination, seedlings were gently transferred using forceps to 1/2 MS plates containing various concentrations of GR-24 as a mixture of four diastereomers: (±)-GR-24 and (±)-2'-epi-GR-24. The root tip of the transferred seedling was marked on the plates. The plates remained unsealed to prevent accumulation of gases (e.g., ethylene), and were positioned in an upright 45° position, and incubated at 22° C. with a light intensity of […] m-2 s-1 provided by white fluorescent tubes and under a photoperiod of 16 hours exposure to light/8 hours in the dark for 6-12 days. GR-24 treatments were conducted at concentrations ranging from 2.7×10^-6 to 13.5×10^-6 M. […] GR-24, ST-357 and ST-362 were initially dissolved in acetone to give a 4.5 mM, 10 μM and 10 μM solutions, respectively, which were then further diluted with double-distilled sterile water (DDW). […] In each of the experiments, non-treated roots were compared to the respective acetone control. Where no difference was observed between the various controls, non-treated roots are shown. Where differences were recorded between non-treated and acetone controls, the comparison was made between GR-24, ST-357 and ST-362-treated and acetone-treated roots. RNA was extracted from seedlings grown and treated as described in Example 1. Quantitative PCR was performed by amplifying fragments of genes of interest (Tables 6 & 7). Arabidopsis 15S ribosomal RNA (GenBank accession no. AT1G04270.1) served as the reference gene for the amount of RNA, and was amplified using specific primers (forward) [NT] and (reverse) [NT]. The experiment was performed in 5-6 biological replicates; each replicate included 8 plants, on which 3 technical repeats were performed. Means and standard error were determined from all biological replicates. Primers were designed using PrimerQuest software (Integrated DNA Technologies). RNA was extracted using Trizol (Invitrogen, Carlsbad, Calif., USA) using the manufacturer's protocol. 1 μg RNA was reverse-transcribed in a total volume of 20 μl using the Superscript First strand cDNA synthesis kit (Invitrogen). […] The expression of each target gene was normalized to the expression of GAPDH RNA and is presented as the ratio of the target gene to GAPDH RNA, expressed as 2-ΔCt, where Ct is the threshold cycle and ΔCt=[NT] […]
# [2] = test system: MCF-7; test: Cell cycle analysis (propidium iodide, flow cytometry); type: cell-based, human; details: 10 ppm, 48 hours
# Procedure: (§1) Adherent cells were trypsinyzed, washed twice with PBS and filtered through a […] cell sieve. DNA content was assessed by flow cytometry. Cells were seeded at densities of 1.5×10^5 cells (MDA-MB-231, MDA-MB-436), or 4×10^5 cells (MCF-7 and MCF10A), or 2×10^5 cells (SW480, HT-29), or 5×10^5 cells (HCT116), per well in DMEM with 10% FBS in 6-well plate culture dishes. […] After 48 hours, cells were washed twice with PBS (pH 7.4), centrifuged at 360 g for 10 minutes at 4° C., and fixed in chilled ethanol (70%; v/v in PBS) with gentle vortex mixing. To determine their DNA contents, the cells were stained with 40 μg/ml propidium iodide (hereinafter PI) and analyzed using a FACSCalibur flow cytometer and CellQuest analysis software (Becton Dickinson, San Jose, Calif.). Where phosphoHistone-H3 staining was carried out, cells were incubated with polyclonal antibody against phosphoHistone H3 and then with secondary Goat anti-rabbit IgG-conjugated to FITC prior to PI staining.
# [3] = test system: MDA-MB-436; test: as above; type: cell-based, human; details: 10 ppm, 48 hours
# Procedure: as §1
# [4] = test system: MDA-MB-231 mammospheres; test: Mammosphere formation; type: cell-based, human
# Procedure: Adherent cells were gently trypsinized, (0.05% trypsin/EDTA) washed twice in PBS and filtered through a […] cell sieve to obtain a single cell suspensions. Cells were diluted to a concentration of 10,000 cell/ml in serum-free phenol-red free MEBM (MEGM Bulletkit, Lonza) supplemented with 5 μg/ml bovine insulin, 20 ng/ml recombinant epidermal growth factor, 20 ng/ml basic fibroblast growth factor (Gibco), 1×B27 supplement, 0.5 μg/ml hydrocortisone (MEGM Bulletkit, Lonza). For MDA-MB-231 mammosphere cultures serum-free phenol red-free CnT-27 medium with growth additives (CellnTEC Advanced cell systems, Bern, Switzerland) was used as previously described. 0.1 ml was seeded per well of a Ultralow attachment 96 well plates. The following day the indicated doses of GR-24 (ppm) or vehicle alone (0.6% acetone f/c) were added. Media was replenished every 3-4 days. Self-renewal capacity of the mammospheres was determined by re-plating and producing further generations of mammospheres. Secondary mammospheres were cultivated by dissociation (trypsinization with gently vortexing) of 10-14 day old primary mammospheres. Single cell suspensions were obtained as described above.
# [5] = test system: MCF-7 cells; test: Stability in aqueous solution (media, activity on MCF-7 by XTT); type: physicochemical, human; details: stored at 4° C. for 3 days
# Procedure: To assess strigolactone analogs stability in aqueous solution, each strigolactone analog was diluted to the desired concentration in media and stored at 4° C. for 3 days, at which time the strigolactone analog containing media was overlayed onto MCF-7 cells seeded into 96 well plates in phenol free DMEM supplemented with 5% charcoal stripped serum. After 3 days growth and viability was assessed (XTT, ATCC) and results compared to cells treated with freshly diluted strigolactone analog (FIG. 15) (absorbance readings presented as % of controls. Average+SD). […] For this reason all strigolactone analogs were diluted fresh from acetone stocks into media to desired concentrations and overlayed onto cells within 1 hour. Where necessary, media was refreshed every 3 days.
Structure (SMILES),GRI gene expression induction ([1]; 3 μM) [fold],"GRI transcription level versus controls ([1]; WT seedlings, 3 μM)",GRI gene transcription ([1]; max2-1 mutants),"GRI transcription level versus controls ([1]; max2-1 seedlings, 3 μM)",Change in the subG1 fraction [2],Increase in the sub-G1/apoptotic fraction compared to vehicle [3] [fold],Mammosphere growth ([4]; 2.5 ppm),Mammosphere formation ([4]; 5 ppm),"Concentration to block mammosphere formation, fold lower than IC50 dose for monolayer growth ([4]; MDA-MB-231) [fold]",Stability in aqueous solution: activity versus freshly diluted analog [5]
"CC1=C[C@H](O/C=C2/C(=O)O[C@@H]3c4ccccc4C[C@H]23)OC1=O (relative stereo) [GR-24, (3aR*,8bS*,E)-3-(((R*)-4-methyl-5-oxo-2,5-dihydrofuran-2-yloxy)methylene)-3,3a,4,8b-tetrahydro-2H-indeno[1,2-b]furan-2-one]",2.3,33.008 ± 7.121,not induced,0.214 ± 0.193,no change,3.4,severely attenuated,completely blocked,2.7,
"CC1=CC(O/C=C2\Cc3c(n(C)c4ccccc34)C2=O)OC1=O (racemic) [EG-5, (±) (2E)-4-methyl-2-(4-methyl-5-oxo-2,5-dihydrofuran-2-yloxymethylene)-1,4-dihydro-2H-cyclopenta[b]indol-3-one]",,,,,,,,,,completely failed to inhibit MCF-7 growth
